Earlier results in patent publication US11014971B2, “Peptibodies, compositions thereof, and methods of treating atrial fibrillation” (University of South Florida, priority 2016, dated 2021).

Tests used:
[1] = target: T1, IKACh (Homo sapiens, UniProt P48544+P48549)
T1 sequence (P48549 1-501): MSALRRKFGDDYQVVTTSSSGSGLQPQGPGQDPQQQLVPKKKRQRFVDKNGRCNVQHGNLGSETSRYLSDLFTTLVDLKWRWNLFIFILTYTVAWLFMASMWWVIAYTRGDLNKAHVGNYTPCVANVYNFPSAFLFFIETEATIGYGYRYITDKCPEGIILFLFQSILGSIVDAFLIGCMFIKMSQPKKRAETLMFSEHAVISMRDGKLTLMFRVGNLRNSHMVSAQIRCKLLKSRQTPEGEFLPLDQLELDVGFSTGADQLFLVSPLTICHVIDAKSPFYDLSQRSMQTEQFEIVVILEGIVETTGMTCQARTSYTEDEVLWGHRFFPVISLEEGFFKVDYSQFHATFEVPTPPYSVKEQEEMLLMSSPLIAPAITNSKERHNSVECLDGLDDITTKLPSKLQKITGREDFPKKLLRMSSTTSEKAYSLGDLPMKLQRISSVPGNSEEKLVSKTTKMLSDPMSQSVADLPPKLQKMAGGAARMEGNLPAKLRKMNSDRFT
T1 sequence (P48544 1-419): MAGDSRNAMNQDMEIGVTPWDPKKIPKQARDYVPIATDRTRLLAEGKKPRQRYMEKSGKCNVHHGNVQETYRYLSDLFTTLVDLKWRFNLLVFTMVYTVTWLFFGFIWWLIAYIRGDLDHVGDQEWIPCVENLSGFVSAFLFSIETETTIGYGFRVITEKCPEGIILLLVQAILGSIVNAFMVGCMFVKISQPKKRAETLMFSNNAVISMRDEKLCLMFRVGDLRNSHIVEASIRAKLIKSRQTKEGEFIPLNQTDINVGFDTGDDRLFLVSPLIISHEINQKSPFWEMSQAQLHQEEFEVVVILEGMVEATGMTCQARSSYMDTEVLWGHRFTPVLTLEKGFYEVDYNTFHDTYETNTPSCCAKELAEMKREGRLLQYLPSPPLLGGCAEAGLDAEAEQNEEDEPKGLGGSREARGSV

[2] = tested on: paroxysmal AF and atrial flutter in patients
[3] = tested on: atrial action potential in a normal heart

| Compound | Concentrations at which IKACh is selectively inhibited [1] | Reversion of atrial flutter in patients ([2]; atrial flutter) | Reversion of paroxysmal AF in patients ([2]; paroxysmal AF) | Effect on the action potential duration in normal atria [3] |
| --- | --- | --- | --- | --- |
| Cc1cc(C(=O)N(C)[C@H](CN2CC(O)C2)C(C)C)ccc1F [AZD2927] | submicromolar | failed to revert |  |  |
| Cc1cc(CO)nc2cc3c(cc12)OC(C)(C)[C@H](O)[C@H]3NCCc1ccccc1 [NTC-801] | submicromolar |  | failed to revert |  |
| Tertiapin |  |  |  | minimal effects |
